Measured values from patent US11124476B2, “Tunable nitric oxide-releasing macromolecules having multiple nitric oxide donor structures” (The University of North Carolina at Chapel Hill, priority 2011, dated 2021).

Test: NO release from NO-releasing co-condensed silica, Nitric Oxide Analyzer, physiological condition
Assay type: physicochemical
Protocol: A variety of single and multi-donor co-condensed silica macromolecules were synthesized. […] FIGS. 8A and 8B illustrate the same release profiles with normalized maximum NO concentration. FIG. 8B illustrates the same release profiles, with normalized maximum NO concentration, as FIG. 8A, but is an expanded view of the release profiles. All release profiles were collected with a Nitric Oxide Analyzer under physiological condition at pH=7.4 and 37° C.
To make NO-releasing co-condensed silica with programmed release profile, the different silane diazeniumdiolate monomer solutions were mixed at the pre-set ratios. The mixture is then added into a flask with pre-cooled ethanol with nitrogen protection. The mixture is further cooled to −15° C. and pre-set amount of backbone silane (TEOS or TMOS) is added. When the mixture temperature equilibriums to −15° C., the ammonium hydroxide aqueous solution is added. The reaction is then warmed rapidly to 15° and stirred for additional 3 hours. The content is then filtered. The solid is washed with dry ethanol twice and then dried extensively.

CCCCCCCCCCCCNCCCCCCN(CCCCCCCCCCCC)/[N+]([O-])=N/O [MAP3 diazeniumdiolate]
duration of NO release: only a few minutes
